# Like-named read-outs stand apart in the source and are kept apart here.
# What was measured:
# [1] = RP-UHPLC lipophilicity parameter log k’w; type: physicochemical; details: for log k’w: RP-UHPLC, acetonitrile/water, log k extrapolated to 0% acetonitrile; for logkw: experimental lipophilicity parameter
# Source text: Lipophilicity and water solubility of the drug candidates are important parameters as they are often directly related to their ADME properties in the organism. Lipophilicity is usually expressed as the logarithm of the partition coefficient in n-octanol/water (log P). Due to its laborious determination, especially in the HTS screening, other experimental methods such as RP-HPLC log k’w or purely computational approaches such as Clog P were proposed and have been established as reasonable estimators of true lipophilicity. To investigate the changes in lipophilicity upon introduction of oxazole in the title compounds, we determined the log k’w of all derivatives and compared respective values among the pairs.
# The log k of the synthesized compounds was measured using the same instrument (single measurement per concentration), software, and column as was used in the purity evaluation. Working solutions were diluted as described above for purity determination. The log k parameter was calculated after the UHPLC measurements using isocratic mode with mobile phase acetonitrile (B)/water (A) in a set of concentrations of 40, 45, 50% and 20, 30, 40% B for subtype I and subtype II, respectively.
# HepG2 cells = assay: HepG2 cytotoxicity screening (CellTiter 96); type: cell-based, human; details: Homo sapiens, HepG2, 24 h, 24 h incubation, CellTiter 96; * above highest tested concentration; ** limited by insolubility in medium
# [2] = tested on: Mycobacterium tuberculosis H37Ra ITM-M006710 (ATCC 9431); assay: Antimycobacterial MIC, microdilution broth / Alamar Blue (resazurin); type: cell-based; details: Mycobacterium tuberculosis, 120 h, Middlebrook 7H9, resazurin after 120 h; read-out: Mtb H37Ra MIC
# [3] = tested on: M. smegmatis DSM 43465 (ATCC 607); assay: Antimycobacterial MIC, microdilution broth / resazurin; type: cell-based; details: Mycolicibacterium smegmatis; resazurin after 48 h; read-out: MIC M. smegmatis
# [4] = tested on: M. aurum DSM 43999 (ATCC 23366); assay: as above; type: cell-based; details: Mycolicibacterium aurum, read-out: MIC M. aurum
# [5] = tested on: Staphylococcus aureus subsp. aureus CCM 4223 (ATCC 29213); assay: Antibacterial microdilution broth (EUCAST); type: cell-based; details: Staphylococcus aureus; 24h incubation; read-out: MIC SA
# [6] = tested on: Staphylococcus aureus subsp. aureus (MRSA) CCM 4750 (ATCC 43300); assay: Antibacterial microdilution broth (EUCAST); type: cell-based; details: Staphylococcus aureus; 24h incubation; read-out: MIC MRSA
# [7] = tested on: Staphylococcus epidermidis CCM 4418 (ATCC 12228); assay: Antibacterial microdilution broth (EUCAST); type: cell-based; details: Staphylococcus epidermidis; 24h incubation; read-out: MIC SE
# [8] = tested on: Enterococcus faecalis CCM 4224 (ATCC 29212); assay: Antibacterial microdilution broth (EUCAST); type: cell-based; details: Enterococcus faecalis; 24h incubation; read-out: MIC EF
# [9] = tested on: Escherichia coli CCM 3954 (ATCC 25922); assay: Antibacterial microdilution broth (EUCAST); type: cell-based; details: Escherichia coli; 24h incubation; read-out: MIC EC
# [10] = tested on: Acinetobacter baumannii DSM 30007 (ATCC 19606); assay: Antibacterial microdilution broth (EUCAST); type: cell-based; details: Acinetobacter baumannii; 24h incubation; read-out: MIC AB
# [11] = tested on: Pseudomonas aeruginosa CCM 3955 (ATCC 27853); assay: Antibacterial microdilution broth (EUCAST); type: cell-based; details: Pseudomonas aeruginosa; 72h incubation; read-out: MIC PA
# [12] = tested on: Candida albicans CCM 8320 (ATCC 24433); assay: Antifungal microdilution broth (EUCAST); details: Candida albicans; for MIC: 24 h
# [13] = tested on: Candida krusei CCM 8271 (ATCC 6258); assay: Antifungal microdilution broth (EUCAST); details: Pichia kudriavzevii; for MIC: 24 h
# [14] = tested on: Candida parapsilosis CCM 8260 (ATCC 22019); assay: Antifungal microdilution broth (EUCAST); details: Lodderomyces parapsilosis
# [15] = tested on: Candida tropicalis CCM 8264 (ATCC 750); assay: Antifungal microdilution broth (EUCAST); details: Candida tropicalis; for MIC: 24 h
# [16] = tested on: Aspergillus fumigatus ATCC 204305; assay: Antifungal microdilution broth (EUCAST); details: Aspergillus fumigatus
# [17] = tested on: Aspergillus flavus CCM 8363; assay: Antifungal microdilution broth (EUCAST); details: Aspergillus flavus
# [18] = tested on: Lichtheimia corymbifera CCM 8077; assay: Antifungal microdilution broth (EUCAST); details: Lichtheimia corymbifera
# [19] = tested on: Trichophyton interdigitale CCM 8377 (ATCC 9533); assay: Antifungal microdilution broth (EUCAST); details: Trichophyton interdigitale
# [20] = tested on: M. avium DSM 44156 (ATCC 25291); assay: Antimycobacterial MIC, microdilution broth / resazurin; type: cell-based, Mycobacterium avium; details: Mycobacterium avium; resazurin after 96 h; read-out: MIC M. avium
# [21] = tested on: M. kansasii DSM 44162 (ATCC 12478); assay: as above; type: cell-based; details: Mycobacterium kansasii; resazurin after 96 h; read-out: MIC M. kansasii
# [22] = ATCC204305, 24 h, read-out: MIC AF
# [23] = CCM8363, 24 h, read-out: MIC AFla
# [24] = CCM8077, 24 h, read-out: MIC LC
# [25] = read-out: MIC (visual detection)
# [26] = ATCC22019|CCM8260, 24 h, read-out: MIC (visual detection)
# [27] = ATCC204305, 48 h, read-out: MIC (visual detection)
# [28] = CCM8363, 48 h, read-out: MIC (visual detection)
# [29] = CCM8077, 48 h, read-out: MIC (visual detection)
# [30] = ATCC9533|CCM8377, 48 h, read-out: MIC (visual detection)
smiles,measurement,setting,value
O=C(Nc1ncco1)c1ccccn1 [Compound 1b],log k’w,[1],0.854
same,logkw,[1],0.8542
same,IC50,HepG2 cells,> 1 mM
same,MIC,[2],62.5 µg/mL
same,MIC,[3],125 µg/mL
same,MIC,[4]; resazurin after 72 h,31.2 µg/mL
same,MIC,[5],125 µM
same,MIC,[6],250 µM
same,MIC,[7],125 µM
same,MIC,[8],> 500 µM
same,MIC,[9],> 500 µM
same,MIC,[10],> 500 µM
same,MIC,[11],> 500 µM
same,melting point,,129 to 131 °C
same,MIC,[12]; read-out: MIC CA,> 500 µM
same,MIC,[13]; read-out: MIC CK,> 500 µM
same,MIC,"[14]; 24 h, read-out: MIC CP",> 500 µM
same,MIC,[15]; read-out: MIC CT,> 500 µM
same,MIC,[16]; [22],> 500 µM
same,MIC,[17]; [23],> 500 µM
same,MIC,[18]; [24],> 500 µM
same,MIC,"[19]; 72 h, read-out: MIC TI",> 500 µM
O=C(Nc1ncco1)c1ccncc1 [Compound 3b],log k’w,[1],0.396
same,logkw,[1],0.3955
same,IC50,HepG2 cells,> 1 mM
same,MIC,[2],15.6 µg/mL
same,MIC,[3],62.5 µg/mL
same,MIC,[4]; 72 h,15.6 µg/mL
same,MIC,[5],250 µM
same,MIC,[6],500 µM
same,MIC,[7],500 µM
same,MIC,[8],> 500 µM
same,MIC,[9],> 500 µM
same,MIC,[10],> 500 µM
same,MIC,[11],> 500 µM
same,melting point,,175 to 177 °C
same,MIC,[12]; read-out: MIC CA,500 µM
same,MIC,[13]; read-out: MIC CK,500 µM
same,MIC,"[14]; 24 h, read-out: MIC CP",> 500 µM
same,MIC,[15]; read-out: MIC CT,> 500 µM
same,MIC,[16]; [22],> 500 µM
same,MIC,[17]; [23],> 500 µM
same,MIC,[18]; [24],500 µM
same,MIC,"[19]; 72 h, read-out: MIC TI",500 µM
O=C(Nc1nccs1)c1cnccn1 [Compound 8a],log k’w,[1],1.222
same,logkw,[1],1.222
same,MIC,[2],62.5 µg/mL
same,MIC,[3],≥ 500 µg/mL
same,MIC,[4]; resazurin after 72 h,125 µg/mL
same,MIC,[20],250 µg/mL
same,MIC,[21],31.2 µg/mL
same,MIC,[5],> 500 µM
same,MIC,[6],> 500 µM
same,MIC,[7],500 µM
same,MIC,[8],> 500 µM
same,MIC,[9],> 500 µM
same,MIC,[10],> 500 µM
same,MIC,[11],> 500 µM
same,MIC,[12]; read-out: MIC CA,> 500 µM
same,MIC,[13]; read-out: MIC CK,> 500 µM
same,MIC,"[14]; 24 h, read-out: MIC CP",> 500 µM
same,MIC,[15]; read-out: MIC CT,> 500 µM
same,MIC,[16]; [22],> 500 µM
same,MIC,[17]; [23],> 500 µM
same,MIC,[18]; [24],> 500 µM
same,MIC,"[19]; 72 h, read-out: MIC TI",> 500 µM
"C[C@@H]1[C@H](O)[C@@H](C)/C=C/C=C/C=C/C=C/C=C/C=C/C=C/[C@H](O[C@@H]2O[C@H](C)[C@@H](O)[C@H](N)[C@@H]2O)C[C@@H]2O[C@](O)(C[C@@H](O)C[C@@H](O)[C@H](O)CC[C@@H](O)C[C@@H](O)CC(=O)O[C@H]1C)C[C@H](O)[C@H]2C(=O)O [amphotericin B, reference compound]",MIC,[12]; [25],1 µg/mL
same,IC90,"[12]; ATCC24433|CCM8320, 24 h, read-out: IC90 (spectrophotometric detection)",1 µg/mL
same,MIC,[13]; [25],1 µg/mL
same,IC90,"[13]; ATCC6258|CCM8271, 24 h, read-out: IC90 (spectrophotometric detection)",1 µg/mL
same,IC90,"[14]; ATCC22019|CCM8260, 24 h, read-out: IC90 (spectrophotometric detection)",0.5 µg/mL
same,MIC,[14]; [26],0.5 µg/mL
same,MIC,[15]; [25],1 µg/mL
same,IC90,"[15]; ATCC750|CCM8264, 24 h, read-out: IC90 (spectrophotometric detection)",1 µg/mL
same,IC90,"[16]; ATCC204305, 48 h, read-out: IC90 (spectrophotometric detection)",4 µg/mL
same,MIC,[16]; [27],4 µg/mL
same,IC90,"[17]; CCM8363, 48 h, read-out: IC90 (spectrophotometric detection)",4 µg/mL
same,MIC,[17]; [28],4 µg/mL
same,IC90,"[18]; CCM8077, 48 h, read-out: IC90 (spectrophotometric detection)",1 µg/mL
same,MIC,[18]; [29],1 µg/mL
same,IC90,"[19]; ATCC9533|CCM8377, 48 h, read-out: IC90 (spectrophotometric detection)",1 µg/mL
same,MIC,[19]; [30],1 µg/mL
"C[C@@H](c1ncncc1F)[C@](O)(Cn1cncn1)c1ccc(F)cc1F [voriconazole, reference compound]",MIC,[12]; [25],> 16 µg/mL
same,IC50,"[12]; ATCC24433|CCM8320, 24 h, read-out: IC50 (spectrophotometric detection)",0.03 µg/mL
same,MIC,[13]; [25],> 16 µg/mL
same,IC50,"[14]; ATCC22019|CCM8260, 24 h, read-out: IC50 (spectrophotometric detection)",0.03 µg/mL
same,MIC,[14]; [26],> 16 µg/mL
same,MIC,[15]; [25],> 16 µg/mL
same,IC50,"[16]; ATCC204305, 48 h, read-out: IC50 (spectrophotometric detection)",0.25 µg/mL
same,MIC,[16]; [27],1 µg/mL
same,IC50,"[17]; CCM8363, 48 h, read-out: IC50 (spectrophotometric detection)",1 µg/mL
same,MIC,[17]; [28],> 16 µg/mL
same,IC50,"[18]; CCM8077, 48 h, read-out: IC50 (spectrophotometric detection)",8 µg/mL
same,MIC,[18]; [29],> 16 µg/mL
same,IC50,"[19]; ATCC9533|CCM8377, 48 h, read-out: IC50 (spectrophotometric detection)",1 µg/mL
same,MIC,[19]; [30],> 16 µg/mL
